pKi: −log10 of the molar value. Non-standard residues stand in square brackets, D forms with d. Residues, ends and D or L forms follow the SMILES beside them. *: point of attachment. Tyr(Nα,Nα-allyl2) = C=CCN(CC=C)[C@@H](Cc1ccc(O)cc1)C(=O)*; Aib = CC(C)(N)C(=O)O
Legend:
[1] = target: T1, Opioid receptors; delta & kappa (Homo sapiens) (UniProt P41145+P41143); experiment: Ke selectivity ratio (kappa/delta) of the compound; type: protein assay
[2] = target: T2, Opioid receptors; mu & delta (Homo sapiens) (UniProt P41143+P35372); experiment: Ke selectivity ratio (mu/delta) of the compound; type: protein assay
T2 sequence (P35372 whole entry, looked up): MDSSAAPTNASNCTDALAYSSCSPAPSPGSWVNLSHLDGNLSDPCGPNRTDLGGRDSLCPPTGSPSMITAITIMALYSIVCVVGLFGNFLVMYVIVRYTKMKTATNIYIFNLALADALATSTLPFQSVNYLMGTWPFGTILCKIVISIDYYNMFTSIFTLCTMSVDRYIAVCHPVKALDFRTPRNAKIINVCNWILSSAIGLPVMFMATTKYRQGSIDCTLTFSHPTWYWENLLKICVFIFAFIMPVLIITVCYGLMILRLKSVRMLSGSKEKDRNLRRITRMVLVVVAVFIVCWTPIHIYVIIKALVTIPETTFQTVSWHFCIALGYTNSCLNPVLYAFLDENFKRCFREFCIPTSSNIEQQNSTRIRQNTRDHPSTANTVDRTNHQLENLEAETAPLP
T2 sequence (P41143 whole entry, looked up): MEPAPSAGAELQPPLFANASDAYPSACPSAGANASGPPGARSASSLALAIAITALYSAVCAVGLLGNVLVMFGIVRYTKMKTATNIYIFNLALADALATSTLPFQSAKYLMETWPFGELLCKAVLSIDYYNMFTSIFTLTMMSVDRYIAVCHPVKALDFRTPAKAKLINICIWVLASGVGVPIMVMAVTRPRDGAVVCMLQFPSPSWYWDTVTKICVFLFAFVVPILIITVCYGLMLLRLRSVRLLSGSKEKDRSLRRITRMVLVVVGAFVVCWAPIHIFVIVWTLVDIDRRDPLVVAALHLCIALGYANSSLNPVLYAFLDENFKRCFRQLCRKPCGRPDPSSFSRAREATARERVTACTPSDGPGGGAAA

[3] = target: T2, Opioid receptors; mu & delta (Homo sapiens); experiment: Ki selectivity ratio (mu/delta) of the compound; type: protein assay
[4] = target: T1, Opioid receptors; delta & kappa (Homo sapiens); experiment: Ki selectivity ratio (kappa/delta) of the compound; type: protein assay
[5] = target: Kappa-type opioid receptor (Cavia porcellus, UniProt P41144); experiment: Compound was evaluated for binding affinity of Opioid receptor kappa 1 in guinea pig brain membranes; type: cell membranes, Membrane
Kappa-type opioid receptor, sequence (P41144 whole entry): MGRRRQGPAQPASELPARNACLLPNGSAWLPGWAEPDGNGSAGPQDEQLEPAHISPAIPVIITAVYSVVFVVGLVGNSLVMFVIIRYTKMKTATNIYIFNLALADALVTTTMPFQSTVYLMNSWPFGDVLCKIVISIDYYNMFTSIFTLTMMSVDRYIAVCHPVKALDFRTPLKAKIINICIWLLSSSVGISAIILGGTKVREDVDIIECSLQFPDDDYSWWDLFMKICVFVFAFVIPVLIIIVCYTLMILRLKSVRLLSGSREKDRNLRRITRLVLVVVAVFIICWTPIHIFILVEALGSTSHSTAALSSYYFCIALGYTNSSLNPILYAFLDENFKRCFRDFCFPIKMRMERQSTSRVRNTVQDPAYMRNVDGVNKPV

[6] = target: Delta-type opioid receptor (Mus musculus) (UniProt P32300); experiment: Compound was evaluated for antagonist potency in the mouse vas deferens preparation using [D-Ala2,D-Leu5]enkephalin (Opioid receptor delta 1); type: functional
Delta-type opioid receptor (Mus musculus), sequence (P32300 whole entry): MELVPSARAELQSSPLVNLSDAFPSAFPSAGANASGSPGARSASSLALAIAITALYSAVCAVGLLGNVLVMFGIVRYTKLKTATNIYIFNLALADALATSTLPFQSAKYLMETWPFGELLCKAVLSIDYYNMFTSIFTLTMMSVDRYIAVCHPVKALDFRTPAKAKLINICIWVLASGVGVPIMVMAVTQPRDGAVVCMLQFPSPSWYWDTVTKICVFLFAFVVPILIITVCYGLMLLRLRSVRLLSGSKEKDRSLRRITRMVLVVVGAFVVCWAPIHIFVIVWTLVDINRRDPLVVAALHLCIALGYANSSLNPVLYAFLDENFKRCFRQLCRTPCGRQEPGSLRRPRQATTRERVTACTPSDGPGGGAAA

T1 sequence (P41143 whole entry, looked up): as the sequence (P41143 whole entry, looked up) above
T1 sequence (P41145 whole entry, looked up): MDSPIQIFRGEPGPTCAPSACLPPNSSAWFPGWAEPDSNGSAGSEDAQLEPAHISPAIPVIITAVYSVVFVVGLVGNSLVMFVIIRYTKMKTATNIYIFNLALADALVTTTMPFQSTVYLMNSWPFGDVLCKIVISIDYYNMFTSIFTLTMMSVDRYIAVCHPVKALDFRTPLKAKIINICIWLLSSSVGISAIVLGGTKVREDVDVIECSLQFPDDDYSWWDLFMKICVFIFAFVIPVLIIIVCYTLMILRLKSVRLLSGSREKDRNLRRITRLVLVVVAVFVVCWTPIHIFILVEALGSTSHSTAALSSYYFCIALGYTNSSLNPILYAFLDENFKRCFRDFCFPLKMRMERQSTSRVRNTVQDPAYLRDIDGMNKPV

SMILES | Selectivity ratio [1] | Selectivity ratio [2] | Selectivity ratio [3] | Selectivity ratio [4] | pKi [5] | Ke [6] [nM]
C=CCN(CC=C)[C@@H](Cc1ccc(O)cc1)C(=O)NC(C)(C)C(=O)NC(C)(C)C(=O)N[C@@H](Cc1ccccc1)C(=O)N[C@@H](CC(C)C)C(=O)O ({Tyr(Nα,Nα-allyl2)}-[Aib][Aib]FL-OH) | > 18 | > 24 | > 29 | > 29 | – | –
Oc1ccc2c3c1O[C@H]1c4oc5ccccc5c4C[C@@]4(O)[C@@H](C2)N(CC2CC2)CC[C@]314 [NALTRIBEN] | – | – | – | – | 6.82 | 0.27

Source: ChEMBL document CHEMBL1125706, “An approach to the design of receptor-type-selective non-peptide antagonists of peptidergic receptors: delta opioid antagonists” (J Med Chem, 1991)
